Here are results for 29 molecules from patent US9198429B2, “Heterocyclic alkanol-derivatives” (BAYER INTELLECTUAL PROPERTY GMBH, priority 2011, dated 2015).

Values joined by “and” are separate entries in the source; they are usually repeats but may differ in a detail not shown here. Equal values may be shown once.

Series [1] relates to Sphaerotheca fuliginea. Kind of series: Example E: Sphaerotheca test (cucumber)/protective, comparison with EP-A 395 175. In kind it is in vivo. Conditions: application rate 100 ppm, cucumber plants, protective, evaluation 7 days after inoculation.
Another series deals with Pyricularia oryzae. In kind it is in vivo. The conditions noted are these: application rate 1000 ppm, rice plants, protective, evaluation 6 days after inoculation.
In series [2] the test system is Sphaerotheca fuliginea. Description: Example A: Sphaerotheca test (cucumber)/protective. It is filed as in vivo. The conditions noted are these: 500 ppm, cucumber plants, protective, evaluation 7 days after inoculation.
The conditions of series [3]: for log P [b]: pH 2.7; for log P [c]: pH 7.8; for log P [a]: pH 2.3.
The nature of series [4]: logP by HPLC on reversed-phase columns (EEC directive 79/831 Annex V.A8).
Series [5] deals with Pyrenophora teres. Kind of series: Example C: Pyrenophora teres test (barley)/protective. In kind it is in vivo. Conditions: 500 ppm, protective, evaluation 7-9 days after inoculation.
The test system of another series is Alternaria solani. Kind of series: Example B: Alternaria test (tomato)/protective. Conditions: 500 ppm, tomato plants, protective, evaluation 7 days after inoculation. It is filed as in vivo.
Series [6] has as its system Pyrenophora teres. Description: Example F: Pyrenophora teres test (barley)/protective, comparison with EP-A 409 418. It is filed as in vivo. The conditions noted are these: application rate 500 ppm, protective, evaluation 7-9 days after inoculation.
The next series concerns Uromyces appendiculatus. Kind of series: Example H: Uromyces test (beans)/protective. In kind it is in vivo. The conditions noted are these: application rate 10 ppm, protective, evaluation 10 days after inoculation. How it is done: To test for protective activity, young plants are sprayed with the preparation of active compound at the stated application rate. After the spray coating has dried on, the plants are inoculated with an aqueous spore suspension of bean rust (Uromyces appendiculatus) and then remain in an incubation cabin at 100% relative atmospheric humidity and 20° C. for one day. The plants are then placed in a greenhouse at 90% relative atmospheric humidity and a temperature of about 21° C. […]

As to `CC(C)(C)C(O)(CCc1ccc(Cl)cc1)Cc1cncs1` (stereo not drawn), the Efficacy in % in the series with Sphaerotheca fuliginea [1] amounted to 8%.

In the series with Sphaerotheca fuliginea [1], `CC(C)(C)C(O)(COc1ccc(Cl)cc1)Cc1cncs1` (stereo not drawn) had an Efficacy in % of 5%. `CC(C)(C)C(O)(COc1ccc(Cl)cc1)c1cncs1` (stereo not drawn) gave an Efficacy in % in the series with Pyricularia oryzae of 33%. The term chromatographic logP denotes a lipophilicity value derived from retention on a column. Read a high chromatographic logP as higher lipophilicity. In the case of `OC(Cc1cncs1)(c1ccc(Cl)cc1)C1(Oc2ccc(F)cc2)CC1` (stereo not drawn) [Compound 2, 1-(4-chlorophenyl)-1-[1-(4-fluorophenoxy)cyclopropyl]-2-(1,3-thiazol-5-yl)ethanol], the “Efficacy (%)” value in the series with Sphaerotheca fuliginea [2] is 100%. The Efficacy in % in the series on Sphaerotheca fuliginea [1] is on record as 93%. Further, the figures for the chromatographic logP in the series “physchem” (pH 2.7) and in the series “physchem” (pH 7.8) were 3.62 and 3.65, respectively.

Consider `OC(Cc1cnc(Cl)s1)(c1ccc(Cl)cc1)C1(Oc2ccc(F)cc2)CC1` (stereo not drawn) [Compound 3, 1-(4-chlorophenyl)-2-(2-chloro-1,3-thiazol-5-yl)-1-[1-(4-fluorophenoxy)cyclopropyl]ethanol], for which the results for the chromatographic logP in “physchem” (pH 2.7) and in “physchem” (pH 7.8) were 4.55 and 4.53, respectively.

With `OC(c1cnco1)(c1ccc(F)cc1F)C1(Oc2ccc(F)cc2F)CC1` (stereo not drawn) [Compound 4], in series [3], the “log P [b]” value is on record as 3.07 and the “log P [c]” value was found to be 3.1.

Turning to `OC(c1ccc(Br)cc1)(c1cnco1)C1(Oc2ccccc2)CC1` (stereo not drawn) [Compound 5], in series [3], the “log P [b]” value came to 3.51 and the “log P [c]” value is given as 3.48. In the case of `OC(c1ccc(Br)cc1)(c1cnco1)C1(Oc2ccc(F)cc2F)CC1` (stereo not drawn) [Compound 6], in series [3], the “log P [b]” value came to 3.59 and the “log P [c]” value was determined as 3.56.

As to `OC(c1ccc(Br)cc1)(c1cnco1)C1(Oc2ccc(F)cc2)CC1` (stereo not drawn) [Compound 7], in series [3], the “log P [b]” value was 3.54 and the “log P [c]” value is given as 3.52. For `OC(c1ccc(Cl)cc1)(c1cnco1)C1(Oc2ccccc2)CC1` (stereo not drawn) [Compound 8, (4-chlorophenyl)(1,3-oxazol-5-yl)(1-phenoxycyclopropyl)methanol], the values for the chromatographic logP in “physchem” (pH 2.7) and in “physchem” (pH 7.8) were 3.37 and 3.43, respectively. Consider `CC(C)[Si](c1ncc(C(O)(c2ccc(Cl)cc2)C2(Oc3ccccc3)CC2)o1)(C(C)C)C(C)C` (stereo not drawn) [Compound 9, (4-chlorophenyl)(1-phenoxycyclopropyl)[2-(triisopropylsilyl)-1,3-oxazol-5-yl]methanol], for which the chromatographic logP in series [4] (pH 2.7) and in [4] (pH 7.8) was 7.36 throughout. Regarding `OC(c1cncs1)(c1ccc(F)cc1F)C1(Oc2ccc(F)cc2F)CC1` (stereo not drawn) [Compound 11, [1-(2,4-difluorophenoxy)cyclopropyl](2,4-difluorophenyl)1,3-thiazol-5-ylmethanol], the “Efficacy (%)” value in the series on Sphaerotheca fuliginea [2] stood at 95%. For the same molecule, the results for the chromatographic logP in “physchem” (pH 2.7) and in the series “physchem” (pH 7.8) were 3.35 and 3.3, respectively.

`OC(c1cnc(Cl)s1)(c1ccc(F)cc1F)C1(Oc2ccc(F)cc2F)CC1` (stereo not drawn) [Compound 12, (2-chloro-1,3-thiazol-5-yl)[1-(2,4-difluorophenoxy)cyclopropyl](2,4-difluorophenyl)methanol]: the chromatographic logP in “physchem” (pH 2.7) turned out to be 4.29; in “physchem” (pH 7.8), 4.23. On to `COc1ccc(OC(C)(C)C(O)(c2cncs2)C(C)(C)C)cc1` (stereo not drawn) [Compound 13], for which, in the series on Pyrenophora teres [5], the “Efficacy (%)” value was 75%. Further, in [3], the “log P [b]” value is 3.49^[b]. As for `CC(C)(C)C(O)(c1cncs1)C(C)(C)Oc1ccc(I)cc1F` (stereo not drawn) [Compound 14], the “log P [b]” value in series [3] is 4.7^[b]. As for `CC(C)(C)C(O)(c1cncs1)C(C)(C)Oc1ccc(Br)cc1` (stereo not drawn) [Compound 15], the “Efficacy (%)” value with Sphaerotheca fuliginea [2] is on record as 99%. For the same molecule, in series [3], the “log P [b]” value is 4.27^[b]. Consider `CC(C)(C)C(O)(c1cncs1)C(C)(C)Oc1ccc(Cl)cc1` (stereo not drawn) [Compound 16, 2-(4-chlorophenoxy)-2,4,4-trimethyl-3-(1,3-thiazol-5-yl)pentan-3-ol], for which the “Efficacy (%)” value with Sphaerotheca fuliginea [2] was determined as 100%. Further, the chromatographic logP in “physchem” (pH 2.7) was found to be 4.13.

For the molecule `CC(C)(Cc1ccc(OC(F)(F)F)cc1)C(C)(O)c1cncs1` (stereo not drawn) [Compound 17], in the series on Alternaria solani, the “Efficacy (%)” value is 90%.

Turning to `CC(C)(Cc1ccc(Br)cc1)C(C)(O)c1cncs1` (stereo not drawn) [Compound 18], the “log P [b]” value in [3] is 3.22^[b]. On the same count and under the same terms, then `CC(C)(Cc1ccc(F)cc1Cl)C(C)(O)c1cncs1` (stereo not drawn) [Compound 19], with 3.14^[b].

With `CC(C)(Cc1ccc(I)cc1)C(C)(O)c1cncs1` (stereo not drawn) [Compound 20], the “Efficacy (%)” value in the series on Alternaria solani was determined as 90%. In [3], the “log P [b]” value was 3.45^[b]. For `CC(C)(Cc1ccc(C(F)(F)F)cc1)C(C)(O)c1cncs1` (stereo not drawn) [Compound 21], the “Efficacy (%)” value with Pyrenophora teres [5] came to 70%. The “log P [b]” value in series [3] was 3.34^[b].

Turning to `CC(C)(Cc1ccc(Cl)cc1)C(C)(O)c1cncs1` (stereo not drawn) [Compound 22, 4-(4-chlorophenyl)-3,3-dimethyl-2-(1,3-thiazol-5-yl)butan-2-ol], the “Efficacy (%)” value with Sphaerotheca fuliginea [2] is 75%; in the series on Pyrenophora teres [5] it was 70% and 90%. For the same molecule, the figures for the Efficacy in % in the series on Pyrenophora teres [6], in the series on Pyricularia oryzae and with Uromyces appendiculatus were 70%, 78% and 80%, respectively. In addition, the chromatographic logP in “physchem” (pH 2.7) amounted to 3.11. For the molecule `CC(c1ccc(Cl)cc1Cl)C(O)(c1cncs1)C(C)(C)C` (stereo not drawn) [Compound 23], the “Efficacy (%)” value in the series on Sphaerotheca fuliginea [2] turned out to be 70%. The “log P [a]” value in series [3] is 4.4[a]. Consider `CC(c1ccc(F)cc1Cl)C(O)(c1cncs1)C(C)(CF)CF` (stereo not drawn) [Compound 25], for which, in the series with Sphaerotheca fuliginea [2], the “Efficacy (%)” value turned out to be 93%. For the same molecule, the “log P [b]” value in [3] is 3.46^[b]. Regarding `CC(c1ccc(F)cc1Cl)C(O)(c1cnc(Cl)s1)C(C)(CF)CF` (stereo not drawn) [Compound 26], the “log P [a]” value in series [3] was 4.51^[a]. For the molecule `CC(C)(C)C(O)(CCc1ccc(Cl)cc1)c1cncs1` (stereo not drawn) [drawing 36, reference compound], the Efficacy in % with Pyrenophora teres [6] was 0%. Regarding `CC(C)(C)C(O)(CCc1ccc(Cl)cc1)c1cncs1` (stereo not drawn) [drawing 38], the Efficacy in % in the series on Pyricularia oryzae is reported as 22%.

In the series with Uromyces appendiculatus, `CC(C)(C)C(O)(CCc1ccc(Cl)cc1)c1cncs1` (stereo not drawn) [drawing 41, reference compound] yielded an Efficacy in % of 0%.
